Laboratory results as given in US10100061B2, “Oxazepine compound and agricultural/horticultural insecticide containing said compound as active ingredient, and method for using the same” (NIHON NOHYAKU CO., LTD., priority 2014, dated 2018).

Legend:
[1] = system: Green Peach Aphid (Myzus Persicae); experiment: Test of preventive value against green peach aphid (Test Example 1); assay type: in vivo; conditions: 500 ppm, sprayed over stems and leaves of potted Chinese cabbages, sixth day after spraying
Procedure: Test of Preventive Value Against Green Peach Aphid (Myzus Persicae)
Chinese cabbages were planted in plastic pots, each with a size of 8 cm in diameter and 8 cm in height, after which green peach aphids were propagated and the number of parasitic insects was examined in each pot. An oxazepine compound or salt thereof expressed by General Formula (I) according to the present invention was dispersed in water and the dispersion was diluted to 500 ppm in the form of a reagent, after which the reagent was sprayed over stems and leaves of potted Chinese cabbages and let dry under wind, and the pots were kept in a greenhouse, and on the sixth day after the reagent was sprayed, the number of green peach aphids living parasitically on each Chinese cabbage was examined and the preventive value was calculated based on the formula below, and judgment was made according to the criteria below. Preventive value=100−{(T×Ca)/(Ta×C)}×100 [Mathematical Formula 1] • Ta: Number of parasitic insects inside the treatment area before spraying • T: Number of parasitic insects inside the treatment area after spraying • Ca: Number of parasitic insects inside the non-treatment area before spraying • C: Number of parasitic insects inside the non-treatment area after spraying Judgment Criteria • A - - - Preventive value: 100% • B - - - Preventive value: 99%˜90% • C - - - Preventive value: 89%˜80% • D - - - Preventive value: 79%˜50%

[2] = system: Small Brown Planthopper (Laodelphax Striatellus); experiment: Test of insecticidal efficacy against small brown planthopper (Test Example 2); assay type: in vivo; conditions: 500 ppm, rice plants soaked 30 seconds, third-instar larvae, eight days after inoculation; criteria same as in Test Example 1
Description: Test of Insecticidal Efficacy Against Small Brown Planthopper (Laodelphax Striatellus)

Row | SMILES | Preventive value, judgment [1] | Corrected insect mortality, judgment [2]
1 | O=C1Nc2cc(Br)ccc2Oc2cn(-c3cccnc3)nc21 [8-62] | A to D | A to D
2 | O=C1c2nn(-c3cccnc3)cc2Oc2ccc(F)cc2N1CC1CCCO1 (centres unmarked) [8-41] | A to D | A to D
3 | CN1C(=O)c2nn(-c3cccnc3)cc2Oc2cnccc21 [5-2] | A to D | A to D
4 | N#CCN1C(=O)c2nn(-c3cccnc3)cc2Oc2ccc(F)cc21 [1-17] | A to D | A to D
5 | COc1ccc(CN2C(=O)c3nn(-c4cccnc4)cc3Oc3ccccc32)cc1 [1-56] | A to D | A to D
6 | CN1C(=O)c2nn(-c3cccnc3)cc2Oc2cccc(F)c21 [1-19] | A to D | A to D
7 | CC(C#N)N1C(=O)c2nn(-c3cccnc3)cc2Oc2ccccc21 (centres unmarked) [1-77] | A to D | A to D
8 | CN(C)C1=Nc2ccccc2Oc2cn(-c3cccnc3)nc21 [11-10] | A to D | A to D
9 | COC(CN1C(=O)c2nn(-c3cccnc3)cc2Oc2ccc(F)cc21)OC [8-42] | A to D | A to D
10 | COC(CN1C(=O)c2nn(-c3cccnc3)cc2Oc2ccccc21)OC [8-10] | A to D | A to D
11 | CSCN1C(=O)c2nn(-c3cccnc3)cc2Oc2cc(F)ccc21 [8-24] | A to D | A to D
12 | O=C1c2nn(-c3cccnc3)cc2Oc2ccc(F)cc2N1CCCCBr [8-40] | A to D | A to D
13 | COc1ccc2c(c1)Oc1cn(-c3cccnc3)nc1C(=O)N2 [1-39] | A to D | A to D
14 | COCN1C(=O)c2nn(-c3cccnc3)cc2Oc2ccccc21 [1-67] | A to D | A to D
15 | Fc1ccc2c(c1)NCc1nn(-c3cccnc3)cc1O2 [Compound No. 3-6, 7-fluoro-2-(pyridine-3-yl)-9,10-dihydro-2H-benzo [b]pyrazolo [3,4-f][1,4]oxazepine] | A to D | A to D
16 | O=C1NC=COc2cn(-c3cccnc3)nc21 [7-1] | A to D | A to D
17 | O=C1c2nn(-c3cccnc3)cc2Oc2ccccc2N1Cc1ccccn1 [1-57] | A to D | A to D
18 | N#CCN1C(=O)c2nn(-c3cccnc3)cc2Oc2cc(F)ccc21 [Compound No. 1-13, 2-(6-fluoro-10-oxo-2-(pyridine-3-yl)-2H-benzo [b]pyrazolo [3,4-f][1,4]oxazepine-9 (10H)-yl) acetonitrile] | A to D | A to D
19 | CN(C)c1ccc2c(c1)N(C)C(=O)c1nn(-c3cccnc3)cc1O2 [1-46] | A to D | A to D
20 | CN1C(=O)c2nn(-c3cccnc3)cc2Oc2ccc(F)cc21 [1-15] | A to D | A to D
21 | O=C1c2nn(-c3cccnc3)cc2Oc2ccc(F)cc2N1CCCl [8-38] | A to D | A to D
22 | O=C1Nc2cc(C(F)(F)F)ccc2Oc2cn(-c3cccnc3)nc21 [1-37] | A to D | A to D
23 | c1cncc(-n2cc3c(n2)C(NC2CC2)=Nc2ccccc2O3)c1 [11-7] | A to D | A to D
24 | Nc1ccc2c(c1)NC(=O)c1nn(-c3cccnc3)cc1O2 [1-44] | A to D | A to D
25 | Fc1ccc2c(c1)NC(=S)c1nn(-c3cccnc3)cc1O2 [2-5] | A to D | A to D

Row | SMILES | Preventive value, judgment [1] | Corrected insect mortality, judgment [2]
26 | CN1C(=O)c2nn(-c3ccc[n+]([O-])c3)cc2Oc2ccccc21 [9-1] | A to D | A to D
27 | CSCN1C(=O)c2nn(-c3cccnc3)cc2Oc2ccccc21 [8-2] | A to D | A to D
28 | N#Cc1ccc2c(c1)NC(=O)c1nn(-c3cccnc3)cc1O2 [1-50] | A to D | A to D
29 | CCCCCCCCCCCCN1C(=O)c2nn(-c3cccnc3)cc2Oc2ccc(F)cc21 [8-37] | A to D | A to D
30 | CN1C(=O)c2nn(-c3cccnc3)cc2Oc2nccnc21 [13-1] | A to D | A to D
31 | N#CCN1C(=O)c2nn(-c3cccnc3)cc2Oc2ccccc21 [1-4] | A to D | A to D
32 | O=C1c2nn(-c3cccnc3)cc2Oc2ccccc2N1CC(F)(F)C(F)(F)F [8-20] | A to D | A to D
33 | CN1C(=O)c2nn(-c3cccnc3)cc2Oc2ccc(C(F)(F)F)cc21 [1-38] | A to D | A to D
34 | C=CCN1C(=O)c2nn(-c3cccnc3)cc2Oc2ccc(F)cc21 [8-35] | A to D | A to D
35 | O=C1c2nn(-c3cccnc3)cc2Oc2ccccc2N1CCN1CCOCC1 [1-71] | A to D | A to D
36 | CCCCN1C(=O)c2nn(-c3cccnc3)cc2Oc2ccccc21 [1-51] | A to D | A to D
37 | C#CCN1C(=O)c2nn(-c3cccnc3)cc2Oc2cc(C#N)ccc21 [1-48] | A to D | A to D
38 | C#CCN1C(=O)c2nn(-c3cccnc3)cc2Oc2ccc(Cl)cc21 [8-56] | A to D | A to D
39 | S=C1Nc2ccccc2Oc2cn(-c3cccnc3)nc21 [2-1] | A to D | A to D
40 | O=C1Nc2ccccc2Oc2c1nn(-c1cccnc1)c2F [9-3] | A to D | A to D
41 | COCCN1C(=O)c2nn(-c3cccnc3)cc2Oc2ccccc21 [1-68] | A to D | A to D
42 | O=C1Nc2cccc(F)c2Oc2cn(-c3cccnc3)nc21 [1-6] | A to D | A to D
43 | COCN1C(=O)c2nn(-c3cccnc3)cc2Oc2cc(F)ccc21 [8-25] | A to D | A to D
44 | CC(=O)N1C(=O)c2nn(-c3cccnc3)cc2Oc2ccccc21 [1-73] | A to D | A to D
45 | C#CCN1C(=O)c2nn(-c3cccnc3)cc2Oc2cc(C(F)(F)F)ccc21 [1-35] | A to D | A to D
46 | C#CCN1C(=O)c2nn(-c3cncc(F)c3)cc2Oc2cc(F)ccc21 [1-81] | A to D | A to D
47 | CN1C(=O)c2nn(-c3cccnc3)cc2Oc2ccccc21 [Compound No. 1-2, 9-methyl-2-(pyridine-3-yl)-2H-benzo [b]pyrazolo [3,4-f][1,4]oxazepine-10 (9H)-one] | A to D | A to D
48 | C#CCN1C(=O)c2nn(-c3cccnc3)cc2Oc2ccccc21 [1-3] | A to D | A to D
49 | CN1C(=O)c2nn(-c3cccnc3)cc2Oc2c(F)cccc21 [1-7] | A to D | A to D
